Results: ChEMBL document CHEMBL1144064, “Biological evaluation of proanthocyanidin dimers and related polyphenols” (J Nat Prod, 1999)
In brackets after ≈: the same amount, converted by molar mass. Activity calls are given as the source filed them. No cut-off for these calls is given here.

Columns and labels:
Candida albicans = experiment: Antimicrobial activity against Candida albicans; format: functional
Pseudomonas aeruginosa = experiment: Antimicrobial activity against Pseudomonas aeruginosa; format: functional
Staphylococcus aureus = experiment: Antimicrobial activity against Staphylococcus aureus; format: functional
Simplexvirus = experiment: Antiviral activity against HSV up to 200 ug/mL by extracellular virucidal assay; format: functional, organism-based
[1] = Cytotoxicity against human MT4 cells by MTT assay; format: cell-based
[2] = Selectivity index, ratio of CC50 for human MT4 cells to IC50 for HIV infected in human MT4 cells; format: functional
Enterobacter cloacae = experiment: Antimicrobial activity against Enterobacter cloacae; format: functional
Streptococcus pyogenes = experiment: Antimicrobial activity against Streptococcus pyogenes; format: functional
[3] = system: Human immunodeficiency virus; experiment: Antiviral activity against HIV infected in human MT4 cells assessed as inhibition of virus-induced cytopathic effect by MTT assay; format: functional, organism-based; settings: Human immunodeficiency virus 1, MT4
[4] = Modulation of classical complement pathway system assessed as hemoglobin release by spectrophotometry
[5] = Modulation of alternative complement pathway system assessed as hemoglobin release by spectrophotometry
Escherichia coli = experiment: Antimicrobial activity against Escherichia coli; format: functional
Salmonella paratyphi = experiment: Antimicrobial activity against Salmonella paratyphi; format: functional, Salmonella enterica subsp. enterica serovar Paratyphi A; settings: Salmonella enterica
[6] = system: Mycolicibacterium fortuitum; experiment: Antimicrobial activity against Mycobacterium fortuitum; format: functional
[7] = Antioxidant activity assessed as superoxide radical anion scavenging activity; format: functional
Proteus vulgaris = experiment: Antimicrobial activity against Proteus vulgaris; format: functional

SMILES	MBC (Candida albicans) [µg/mL]	MIC (Candida albicans) [µg/mL]	MBC (Pseudomonas aeruginosa) [µg/mL]	MIC (Pseudomonas aeruginosa) [µg/mL]	MBC (Staphylococcus aureus) [µg/mL]	MIC (Staphylococcus aureus) [µg/mL]	Activity (Simplexvirus)	CC50 [1] [µg/mL]	Ratio CC50/IC50 [2]	MBC (Enterobacter cloacae) [µg/mL]	MIC (Enterobacter cloacae) [µg/mL]	IC50 [3] [µg/mL]	IC50 [4] [µM]	MBC (Escherichia coli) [µg/mL]	MIC (Escherichia coli) [µg/mL]	MBC (Salmonella paratyphi) [µg/mL]	MIC (Salmonella paratyphi) [µg/mL]	MBC [6] [µg/mL]	MIC [6] [µg/mL]	IC50 [7] [µM]	also measured
Oc1cc(O)c2c(c1)O[C@H](c1ccc(O)c(O)c1)[C@@H](O)[C@@H]2c1c(O)cc(O)c2c1O[C@H](c1ccc(O)c(O)c1)[C@H](O)C2	> 100	> 100	> 100	> 100	> 100	> 100	inactive	0.3 (≈ 0.519 µM)	<1	> 100	> 100	> 0.3	45.5	> 100	> 100	> 100	> 100	> 100	> 100	30	MBC (Streptococcus pyogenes): 50 µg/mL (≈ 86.4 µM); MIC (Streptococcus pyogenes): 25 µg/mL (≈ 43.2 µM); Activity [5]: inactive
Oc1cc(O)c2c(c1)O[C@H](c1ccc(O)c(O)c1)[C@@H](O)[C@@H]2c1c(O)cc2c(c1O)C[C@@H](O)[C@@H](c1ccc(O)c(O)c1)O2	> 100	> 100	> 100	> 100	> 100	> 100	inactive	127 (≈ 219 µM)	8	> 100	> 100	19.6 (≈ 33.9 µM)	19.7	> 100	> 100	> 100	> 100	> 100	> 100	32.9	IC50 [5]: 83.7 µM
Oc1cc(O)c2c(c1)O[C@H](c1cc(O)c(Oc3cc(O)c4c(c3)O[C@H](c3cc(O)c(O)c(O)c3)[C@H](O)C4)c(O)c1)[C@@H](O)C2	> 100	> 100	> 100	> 100	> 100	> 100	–	–	–	> 100	> 100	–	14.6	> 100	> 100	> 100	> 100	> 100	> 100	2	IC50 [5]: 86 µM
Oc1cc(O)c2c(c1)O[C@H](c1ccc(O)c(O)c1)[C@@H](O)[C@@H]2c1c(O)cc(O)c2c1O[C@H](c1ccc(O)c(O)c1)[C@@H](O)C2	> 100	> 100	> 100	> 100	> 100	> 100	inactive	118 (≈ 204 µM)	5	> 100	> 100	27 (≈ 46.7 µM)	37.7	> 100	> 100	> 100	> 100	> 100	> 100	41.3	Activity [5]: inactive
Oc1cc(O)c2c(c1)O[C@H](c1ccc(O)c(O)c1)[C@@H](O)[C@@H]2c1c(O)cc2c(c1O)C[C@H](O)[C@@H](c1ccc(O)c(O)c1)O2	> 100	> 100	> 100	> 100	> 100	> 100	inactive	141 (≈ 244 µM)	5	> 100	> 100	29.9 (≈ 51.7 µM)	18.5	> 100	> 100	> 100	> 100	> 100	> 100	27.3	MBC (Streptococcus pyogenes): 100 µg/mL (≈ 173 µM); MIC (Streptococcus pyogenes): 100 µg/mL (≈ 173 µM); Activity [5]: inactive
Oc1cc(O)c2c(c1)O[C@H](c1ccc(O)c(O)c1)[C@H](O)[C@H]2c1c(O)cc2c(c1O)C[C@@H](O)[C@@H](c1ccc(O)c(O)c1)O2	> 100	> 100	> 100	> 100	> 100	> 100	inactive	53.5 (≈ 92.5 µM)	9	> 100	> 100	8.3 (≈ 14.3 µM)	51.7	> 100	> 100	> 100	> 100	> 100	> 100	11.4	MBC (Streptococcus pyogenes): 100 µg/mL (≈ 173 µM); MIC (Streptococcus pyogenes): 100 µg/mL (≈ 173 µM); Activity [5]: inactive
O=C1c2c(O)cc(O)cc2O[C@H](c2ccc(O)c(O)c2)[C@H]1O [(+)-TAXIFOLIN]	> 100	> 100	> 100	> 100	> 100	> 100	inactive	25.4 (≈ 83.5 µM)	<1	> 100	> 100	> 25.4	850	> 100	> 100	> 100	> 100	> 100	> 100	24.2	Activity [5]: inactive
Oc1cc(O)c2c(c1)O[C@H](c1ccc(O)c(O)c1)[C@H](O)C2 [(-)-EPICATECHIN]	> 100	> 100	> 100	> 100	> 100	> 100	–	136 (≈ 469 µM)	4	> 100	> 100	34.1 (≈ 117 µM)	656	> 100	> 100	> 100	> 100	> 100	> 100	18.3	Activity [5]: inactive
Oc1cc(O)c2c(c1)O[C@H](c1ccc(O)c(O)c1)[C@@H](O)C2 [CIANIDANOL]	> 100	> 100	> 100	> 100	> 100	> 100	–	86.8 (≈ 299 µM)	<1	> 100	> 100	> 86.8	647	> 100	> 100	> 100	> 100	> 100	> 100	13.1	Activity [5]: inactive
Oc1cc(O)c2c(c1)O[C@@]1(c3ccc(O)c(O)c3)Oc3cc(O)c4c(c3[C@@H]2[C@H]1O)O[C@H](c1ccc(O)c(O)c1)[C@@H](O)C4 [PROANTHOCYANIDIN A1]	> 100	> 100	> 100	> 100	> 100	> 100	inactive	144 (≈ 250 µM)	10	> 100	> 100	14 (≈ 24.3 µM)	57.1	> 100	> 100	> 100	> 100	> 100	> 100	14.7	MIC (Proteus vulgaris): 50 µg/mL (≈ 86.7 µM); IC50 [5]: 105 µM
Oc1cc(O)c2c(c1)O[C@H](c1ccc(O)c(O)c1)[C@H](O)[C@H]2c1c(O)cc(O)c2c1O[C@H](c1ccc(O)c(O)c1)[C@@H](O)C2 [PROCYANIDIN B1]	> 100	> 100	> 100	> 100	> 100	> 100	–	–	–	> 100	> 100	–	31.3	> 100	> 100	> 100	> 100	> 100	> 100	–	IC50 [5]: 72 µM
Oc1cc(O)c2c(c1)O[C@H](c1ccc(O)c(O)c1)[C@H](O)[C@H]2c1c(O)cc(O)c2c1O[C@H](c1ccc(O)c(O)c1)[C@H](O)C2 [PROCYANIDIN B2]	> 100	> 100	> 100	> 100	> 100	> 100	inactive	135 (≈ 234 µM)	8	> 100	> 100	17.2 (≈ 29.7 µM)	58	> 100	> 100	> 100	> 100	> 100	> 100	10.5	MBC (Streptococcus pyogenes): 100 µg/mL (≈ 173 µM); MIC (Streptococcus pyogenes): 100 µg/mL (≈ 173 µM); Activity [5]: inactive
Oc1cc(O)c2c(c1)O[C@H](c1ccc(O)c(O)c1)[C@H](O)[C@H]2c1c(O)cc(O)c2c1O[C@H](c1ccc(O)c(O)c1)[C@H](O)[C@H]2c1c(O)cc(O)c2c1O[C@H](c1ccc(O)c(O)c1)[C@H](O)C2 [PROCYANIDIN C1]	> 100	> 100	> 100	> 100	> 100	> 100	inactive	16.5 (≈ 19 µM)	5	> 100	> 100	4.3 (≈ 4.96 µM)	6	> 100	> 100	> 100	> 100	> 100	> 100	10.7	MBC (Streptococcus pyogenes): 100 µg/mL (≈ 115 µM); MIC (Streptococcus pyogenes): 100 µg/mL (≈ 115 µM); IC50 [5]: 85.5 µM
O=C(/C=C/c1ccc(O)c(O)c1)O[C@H](Cc1ccc(O)c(O)c1)C(=O)O [ROSMARINIC ACID]	–	–	–	–	–	–	–	–	–	–	–	–	21.9	–	–	–	–	–	–	–	IC50 [5]: 408 µM
Cc1cn([C@H]2C[C@H](N=[N+]=[N-])[C@@H](CO)O2)c(=O)[nH]c1=O [ZIDOVUDINE]	–	–	–	–	–	–	–	2.58 (≈ 9.66 µM)	–	–	–	0.0002 (≈ 0.000748 µM)	–	–	–	–	–	–	–	–	–
